# Measurements: PubChem BioAssay AID1259411 (Chemical Carcinogenesis Research Information System (CCRIS), 2018)
# Calls of active or inactive are those of the source. How the calls were made is not given here.
# Test system: rodent carcinogenicity bioassays, tumor incidence
# Assay: CCRIS carcinogenicity studies
# Method in brief: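 NCI-built, expert-reviewed records of carcinogenicity and related test outcomes (mutagenicity, tumor promotion/inhibition) compiled from published and report sources, historical span 1985-2011, not updated.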
compound,measurement,setting,value
CCCCOCCOCCOCc1cc2c(cc1CCC)OCO2,carcinogen call,"Species: MOUSE, Strain/Sex: B6C3F1/FEMALE, Route: ORAL, Dose: 0, 1036, 2804 PPM IN DIET, TWA, Dose: 0, 1036, 2804 PPM IN DIET, TWA",inactive; negative
same,carcinogen call,"Species: MOUSE, Strain/Sex: B6C3F1/MALE, Route: ORAL, Dose: 0, 1036, 2804 PPM IN DIET, TWA, Dose: 0, 1036, 2804 PPM IN DIET, TWA",inactive; negative
same,carcinogen call,"Species: MOUSE, Strain/Sex: CD-1/FEMALE, Route: ORAL, Dose: 0, 0.6, 1.2% IN DIET FOR 52 WK (STUDY DURATION: 52 WK), Dose: 0, 0.6, 1.2% IN DIET FOR 52 WK (STUDY DURATION: 52 WK), Tumor Site: Type of Lesion: LIVER: HEPATOCELLULAR ADENOMA, HEPATOCELLULAR CARCINOMA",active; positive
same,carcinogen call,"Species: MOUSE, Strain/Sex: CD-1/FEMALE, Route: ORAL, Dose: 0, 30, 100, 300 MG/KG/D IN DIET FOR 79 WK (STUDY DURATION: 79 WK), Dose: 0, 30, 100, 300 MG/KG/D IN DIET FOR 79 WK (STUDY DURATION: 79 WK), Tumor Site: Type of Lesion: LIVER: HEPATOCELLULAR ADENOMA",active; positive
same,carcinogen call,"Species: MOUSE, Strain/Sex: CD-1/MALE, Route: ORAL, Dose: 0, 0.6, 1.2% IN DIET FOR 12 MO (STUDY DURATION: 12 MO), Dose: 0, 0.6, 1.2% IN DIET FOR 12 MO (STUDY DURATION: 12 MO), Tumor Site: Type of Lesion: LIVER: HEPATOCELLULAR ADENOMA, HEPATOCELLULAR CARCINOMA, HEMANGIOENDOTHELIAL SARCOMA (SMALL), HEMANGIOENDOTHELIAL SARCOM",active; positive
same,carcinogen call,"Species: MOUSE, Strain/Sex: CD-1/MALE, Route: ORAL, Dose: 0, 0.6, 1.2% IN DIET FOR 52 WK (STUDY DURATION: 52 WK), Dose: 0, 0.6, 1.2% IN DIET FOR 52 WK (STUDY DURATION: 52 WK), Tumor Site: Type of Lesion: LIVER: HEPATOCELLULAR ADENOMA, HEPATOCELLULAR CARCINOMA",active; positive
same,carcinogen call,"Species: MOUSE, Strain/Sex: CD-1/MALE, Route: ORAL, Dose: 0, 30, 100, 300 MG/KG/D IN DIET FOR 79 WK (STUDY DURATION: 79 WK), Dose: 0, 30, 100, 300 MG/KG/D IN DIET FOR 79 WK (STUDY DURATION: 79 WK), Tumor Site: Type of Lesion: LIVER: HEPATOCELLULAR ADENOMA",active; positive
same,carcinogen call,"Species: RAT, Strain/Sex: F344/FEMALE, Route: ORAL, Dose: 0, 0.5, 1% IN DIET FOR 2 YR (STUDY DURATION: 110 WK), Dose: 0, 0.5, 1% IN DIET FOR 2 YR (STUDY DURATION: 110 WK)",inactive; negative
same,carcinogen call,"Species: RAT, Strain/Sex: F344/FEMALE, Route: ORAL, Dose: 0, 0.6, 1.2, 2.4% IN DIET FOR 96 WK (STUDY DURATION: 96 WK), Dose: 0, 0.6, 1.2, 2.4% IN DIET FOR 96 WK (STUDY DURATION: 96 WK), Tumor Site: Type of Lesion: LIVER: HEPATOCELLULAR ADENOMA, HEPATOCELLULAR CARCINOMA",active; positive
same,carcinogen call,"Species: RAT, Strain/Sex: F344/FEMALE, Route: ORAL, Dose: 0, 5000, 10000 PPM IN DIET, Dose: 0, 5000, 10000 PPM IN DIET",inactive; negative
same,carcinogen call,"Species: RAT, Strain/Sex: F344/MALE, Route: ORAL, Dose: 0, 0.5, 1% IN DIET FOR 2 YR (STUDY DURATION: 110 WK), Dose: 0, 0.5, 1% IN DIET FOR 2 YR (STUDY DURATION: 110 WK)",inactive; negative
same,carcinogen call,"Species: RAT, Strain/Sex: F344/MALE, Route: ORAL, Dose: 0, 0.6, 1.2, 2.4% IN DIET FOR 95 WK (STUDY DURATION: 95 WK), Dose: 0, 0.6, 1.2, 2.4% IN DIET FOR 95 WK (STUDY DURATION: 95 WK), Tumor Site: Type of Lesion: LIVER: HEPATOCELLULAR ADENOMA, HEPATOCELLULAR CARCINOMA",active; positive
same,carcinogen call,"Species: RAT, Strain/Sex: F344/MALE, Route: ORAL, Dose: 0, 5000, 10000 PPM IN DIET, Dose: 0, 5000, 10000 PPM IN DIET",inactive; negative
same,carcinogen call,"Species: RAT, Strain/Sex: SPRAGUE-DAWLEY/FEMALE, Route: ORAL, Dose: 0, 30, 100, 500 MG/KG/D IN DIET FOR 104-105 WK (STUDY DURATION: 105 WK), Dose: 0, 30, 100, 500 MG/KG/D IN DIET FOR 104-105 WK (STUDY DURATION: 105 WK)",inactive; negative
same,carcinogen call,"Species: RAT, Strain/Sex: SPRAGUE-DAWLEY/MALE, Route: ORAL, Dose: 0, 30, 100, 500 MG/KG/D IN DIET FOR 104-105 WK (STUDY DURATION: 105 WK), Dose: 0, 30, 100, 500 MG/KG/D IN DIET FOR 104-105 WK (STUDY DURATION: 105 WK)",inactive; negative
ClCCN(CCCl)c1ccc2ccccc2c1,carcinogen call,"Species: HUMAN, Route: ORAL, Tumor Site: Type of Lesion: URINARY BLADDER",active; positive
same,carcinogen call,"Species: MOUSE, Strain/Sex: STRAIN-A, Route: INTRAPERITONEAL, Dose: 75, 300, 1200, 4800 MG/KG IN 12 DOSES OVER 4 WK, Dose: 75, 300, 1200, 4800 MG/KG IN 12 DOSES OVER 4 WK, Tumor Site: Type of Lesion: LUNG: ADENOMA",active; positive
same,carcinogen call,"Species: RAT, Route: SUBCUTANEOUS, Dose: 40 MG IN REPEATED DOSES, Tumor Site: Type of Lesion: INJECTION SITE",active; positive
CC1(c2ccc(Oc3ccccc3)cc2)OC(=O)N(Nc2ccccc2)C1=O (stereo not given),carcinogen call,"Species: Mouse, Strain/Sex: CRL: CD1 (ICR)BR/Female (60/Group), Route: Oral, Dose: 0, 1.0, 9.8, 130, 392 mg/kg/day of 97.4% famoxadone in diet for 18 mo, study duration 18 mo, Dose: 0, 1.0, 9.8, 130, 392 mg/kg/day of 97.4% famoxadone in diet for 18 mo, study duration 18 mo",inactive; negative
same,carcinogen call,"Species: Mouse, Strain/Sex: CRL: CD1 (ICR)BR/Male (60/Group), Route: Oral, Dose: 0, 0.7, 6.8, 96, 274 mg/kg/day of 97.4% famoxadone in diet for 18 mo, study duration 18 mo, Dose: 0, 0.7, 6.8, 96, 274 mg/kg/day of 97.4% famoxadone in diet for 18 mo, study duration 18 mo",inactive; negative
same,carcinogen call,"Species: Rat, Strain/Sex: CRL: CD BR/Female (62/Group), Route: Oral, Dose: 0, 0.53, 2.15, 10.7, 23.0 mg/kg/day of 97.4% famoxadone in diet for 24 mo, study duration 24 mo, Dose: 0, 0.53, 2.15, 10.7, 23.0 mg/kg/day of 97.4% famoxadone in diet for 24 mo, study duration 24 mo",inactive; negative
same,carcinogen call,"Species: Rat, Strain/Sex: CRL: CD BR/Male (62/Group), Route: Oral, Dose: 0, 0.42, 1.62, 8.4, 16.8 mg/kg/day of 97.4% famoxadone in diet for 23 mo, study duration 23 mo, Dose: 0, 0.42, 1.62, 8.4, 16.8 mg/kg/day of 97.4% famoxadone in diet for 23 mo, study duration 23 mo",inactive; negative
O=S1(=O)CC=CC1,carcinogen call,"Species: MOUSE, Strain/Sex: B6C3F1/FEMALE, Route: GAVAGE, Dose: 0, 384, 768 MG/KG, Dose: 0, 384, 768 MG/KG",inactive; negative
same,carcinogen call,"Species: MOUSE, Strain/Sex: B6C3F1/MALE, Route: GAVAGE, Dose: 0, 311, 622 MG/KG, Dose: 0, 311, 622 MG/KG",inactive; negative
same,carcinogen call,"Species: RAT, Strain/Sex: OSBORNE-MENDEL/FEMALE, Route: GAVAGE, Dose: 0, 120, 240 MG/KG, Dose: 0, 120, 240 MG/KG",inactive; negative
same,carcinogen call,"Species: RAT, Strain/Sex: OSBORNE-MENDEL/MALE, Route: GAVAGE, Dose: 0, 197, 372 MG/KG, Dose: 0, 197, 372 MG/KG",inactive; negative
CCCCCCCCCc1ccc(OCCO)cc1,carcinogen call,"Species: MOUSE, Strain/Sex: B6C3F1/FEMALE, Route: ORAL, Dose: 0, 500, 1500, 4500 PPM IN DIET FOR 104 WK (STUDY DURATION: 104 WK), Dose: 0, 500, 1500, 4500 PPM IN DIET FOR 104 WK (STUDY DURATION: 104 WK)",inactive; negative
same,carcinogen call,"Species: RAT, Strain/Sex: F344/FEMALE, Route: ORAL, Dose: 0, 1000, 3000, 9000 PPM IN DIET FOR 104 WK (STUDY DURATION: 104 WK), Dose: 0, 1000, 3000, 9000 PPM IN DIET FOR 104 WK (STUDY DURATION: 104 WK)",inactive; negative
CCN(COC(C)=O)N=O,carcinogen call,"Species: RAT, Strain/Sex: F344/FEMALE, Route: SUBCUTANEOUS, Dose: 5.5 MG/KG 1/WK FOR 10 WK, Tumor Site: Type of Lesion: INJECTION SITE: MALIGNANT FIBROUS HISTIOCYTOMA, LUNG: ADENOMA, ADENOCARCINOMA, SQUAMOUS CELL CARCINOMA",active; positive
same,carcinogen call,"Species: RAT, Strain/Sex: F344/MALE, Route: SUBCUTANEOUS, Dose: 5.5 MG/KG 1/WK FOR 10 WK, Tumor Site: Type of Lesion: INJECTION SITE: MALIGNANT FIBROUS HISTIOCYTOMA, LUNG: ADENOMA, ADENOCARCINOMA, SQUAMOUS CELL CARCINOMA, THYROID GLAND: C, Tumor Site: Type of Lesion: INJECTION SITE: MALIGNANT FIBROUS HISTIOCYTOMA, LUNG: ADENOMA, ADENOCARCINOMA, SQUAMOUS CELL CARCINOMA, THYROID GLAND: C",active; positive
